Measurements: the NIST ThermoML archive (doi:10.1021/acs.jced.5b00393)
Numbers after ± are expanded uncertainties.

Key:
[1] = mn = molality of the nth substance listed, in mol/kg; details: 298.15 K, 101 kPa, Liquid, Pycnometric method
[2] = refractive index (Na D-line) (dimensionless); mn = molality of the nth substance listed, in mol/kg; details: 298.15 K, 101 kPa, Liquid, Standard Abbe refractometry

| SMILES | mass density ([1]; m1 = 1.821) [kg/m3] | refractive index ([2]; m1 = 1.821) | mass density ([1]; m1 = 4.734) [kg/m3] | refractive index ([2]; m1 = 4.734) |
| --- | --- | --- | --- | --- |
| N[C@@H](CS)C(=O)O [(R)-2-amino-3-mercaptopropanoic acid] + O | 1074.1 ± 1.1 | 1.3439 ± 0.0004 |  |  |
| NCCCC[C@H](N)C(=O)O [L-lysine] + O |  |  | 1242.1 ± 1.1 | 1.4155 ± 0.0004 |
